Laboratory results from the NIST ThermoML archive (doi:10.1021/je800046k).

Assay: xn = mol fraction of the nth substance listed
Settings: for surface tension liquid-gas: Pendant drop shape; for mass density: 101 kPa, Liquid

CC(=O)OCC(C)C [2-methylpropyl ethanoate] + Cc1cc(C)cc(C)c1
Settings | mass density [kg/m3] | surface tension liquid-gas [mN/m]
298.15 K, x1 = 0.051 | 861.07 | 27.76
298.15 K, x1 = 0.1006 | 861.07 | 27.49
298.15 K, x1 = 0.1506 | 861.09 | 27.2
298.15 K, x1 = 0.2004 | 861.14 | 26.91
298.15 K, x1 = 0.2498 | 861.2 | 26.62
298.15 K, x1 = 0.3003 | 861.29 | 26.31
298.15 K, x1 = 0.35 | 861.41 | 26.04
298.15 K, x1 = 0.4004 | 861.56 | 25.77
298.15 K, x1 = 0.4502 | 861.74 | 25.49
298.15 K, x1 = 0.5004 | 861.94 | 25.23
298.15 K, x1 = 0.5499 | 862.17 | 24.99
298.15 K, x1 = 0.5996 | 862.44 | 24.75
298.15 K, x1 = 0.6494 | 862.74 | 24.52
298.15 K, x1 = 0.6998 | 863.09 | 24.31
298.15 K, x1 = 0.7498 | 863.46 | 24.1
298.15 K, x1 = 0.8007 | 863.89 | 23.91
298.15 K, x1 = 0.8502 | 864.36 | 23.7
298.15 K, x1 = 0.8998 | 864.88 | 23.55
298.15 K, x1 = 0.9491 | 865.43 | 23.37
298.15 K, x1 = 1 | 866.06 | 23.15
308.15 K, x1 = 0.0513 | 852.75 | 26.89
308.15 K, x1 = 0.0999 | 852.66 | 26.61
308.15 K, x1 = 0.1503 | 852.57 | 26.3
308.15 K, x1 = 0.2007 | 852.51 | 26
308.15 K, x1 = 0.2505 | 852.48 | 25.7
308.15 K, x1 = 0.3013 | 852.45 | 25.39
308.15 K, x1 = 0.35 | 852.46 | 25.1
308.15 K, x1 = 0.4002 | 852.49 | 24.82
308.15 K, x1 = 0.4506 | 852.56 | 24.55
308.15 K, x1 = 0.5 | 852.64 | 24.29
308.15 K, x1 = 0.5505 | 852.78 | 24.03
308.15 K, x1 = 0.5997 | 852.91 | 23.77
308.15 K, x1 = 0.6503 | 853.09 | 23.53
308.15 K, x1 = 0.6995 | 853.32 | 23.32
308.15 K, x1 = 0.75 | 853.57 | 23.09
308.15 K, x1 = 0.8002 | 853.86 | 22.89
308.15 K, x1 = 0.8502 | 854.21 | 22.7
308.15 K, x1 = 0.8997 | 854.61 | 22.52
308.15 K, x1 = 0.9498 | 855.03 | 22.35
308.15 K, x1 = 1 | 855.51 | 22.16
313.15 K, x1 = 0.0494 | 848.6 | 26.45
313.15 K, x1 = 0.1 | 848.45 | 26.14
313.15 K, x1 = 0.1493 | 848.33 | 25.81
313.15 K, x1 = 0.2002 | 848.2 | 25.52
313.15 K, x1 = 0.2499 | 848.1 | 25.2
313.15 K, x1 = 0.299 | 848.03 | 24.92
313.15 K, x1 = 0.3492 | 847.98 | 24.62
313.15 K, x1 = 0.3988 | 847.95 | 24.33
313.15 K, x1 = 0.4492 | 847.96 | 24.06
313.15 K, x1 = 0.5003 | 847.98 | 23.78
313.15 K, x1 = 0.5518 | 848.05 | 23.51
313.15 K, x1 = 0.5992 | 848.13 | 23.28
313.15 K, x1 = 0.6503 | 848.26 | 23.02
313.15 K, x1 = 0.6995 | 848.41 | 22.78
313.15 K, x1 = 0.7512 | 848.61 | 22.56
313.15 K, x1 = 0.8005 | 848.85 | 22.35
313.15 K, x1 = 0.8499 | 849.13 | 22.14
313.15 K, x1 = 0.9002 | 849.43 | 21.98
313.15 K, x1 = 0.9504 | 849.8 | 21.81
313.15 K, x1 = 1 | 850.16 | 21.64
